Data set [1] has as its system human multiple myeloma RPMI-8226.
Data set [2] relates to human multiple myeloma LP1.
For data set [3], the target named is T1, murine CD38 (Mus musculus, UniProt P56528).
T1 sequence (P56528 1-304): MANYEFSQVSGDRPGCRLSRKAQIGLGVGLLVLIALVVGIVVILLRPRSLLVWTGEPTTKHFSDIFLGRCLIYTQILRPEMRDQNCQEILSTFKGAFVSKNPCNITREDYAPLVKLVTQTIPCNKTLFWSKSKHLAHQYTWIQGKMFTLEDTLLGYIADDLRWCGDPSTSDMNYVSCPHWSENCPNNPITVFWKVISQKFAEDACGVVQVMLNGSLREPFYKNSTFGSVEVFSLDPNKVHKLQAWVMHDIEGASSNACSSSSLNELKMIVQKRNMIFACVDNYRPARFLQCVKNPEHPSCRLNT
In words: cross-reactivity of the antibody with murine CD38. In kind it is binding.

The mark [4] stands for this setting: melphalan IV 3.8 mg/kg/inj (total 15.2), days 16, 19, 22, 25.
Setting [5] is: melphalan IV 6.2 mg/kg/inj (total 24.8), days 16, 19, 22, 25.
The mark [6] stands for this setting: melphalan IV 10.0 mg/kg/inj (total 40.0), days 16, 19, 22, 25.
The mark [7] stands for this setting: melphalan alone IV, total injected dose 40 mg/kg.
The mark [8] stands for this setting: melphalan IV 3.8 mg/kg/inj (total 15.2), days 12, 15, 18, 21.
Setting [9] is: melphalan IV 6.2 mg/kg/inj (total 24.8), days 12, 15, 18, 21.
Setting [10] is: melphalan IV 10.0 mg/kg/inj (total 40.0), days 12, 15, 18, 21.
[11] abbreviates: melphalan IV 16.1 mg/kg/inj (total 48.3), treatments stopped on day 18.
[12] abbreviates: hu38SB19 IV 40.0 mg/kg/inj (total 160.0), days 12, 15, 18, 21.

Several values for one entry are separate records, joined by “and”; a condition that tells them apart may be missing. Equal values may be shown once. Entries after “also recorded” stand apart in the source; their conditions may differ. Read-outs that look alike come from different tables or passages of the source.

On to `N[C@@H](Cc1ccc(N(CCCl)CCCl)cc1)C(=O)O` [melphalan], for which the Comments result in data set [1] (setting [4]) is given as “Moderately active”; in data set [1] (setting [5]), “Active”; in data set [1] (melphalan IV 10.0 mg/kg/inj (total 40.0), days 16, 19, 22, 25, 10 mg/kg), “HNTD, active”; in data set [1] (melphalan IV 16.1 mg/kg/inj (total 32.2), days 16, 19), “Toxic”; in data set [2] (setting [8]), “Moderately active”; in data set [2] (setting [9]) it was “Highly active”. Moreover, in data set [2] (setting [11]), the Comments result is on record as “Toxic”. Besides, the Drug death was 0/5 in data set [1] (setting [4]); 0/5 in data set [1] (setting [5]); 0/5 in data set [1] (setting [6]); 3 and 3/5 in data set [1] (melphalan IV 16.1 mg/kg/inj (total 32.2), days 16, 19, 16.1 mg/kg). Also, the “T-C in days (1000 mg)” value in data set [1] (setting [4]) is recorded as 8.5 days; in data set [1] (setting [5]) it was 9.5 days; in data set [1] (setting [6]), 20.0 days; in data set [2] (setting [8]), 4.1 days; in data set [2] (setting [9]), 17.4 days; in data set [2] (setting [10]), 46.5 days. The log10 cell kill in data set [1] (setting [4]) was 0.8; in data set [1] (setting [5]), 0.9; in data set [1] (setting [6]) it was 1.9. Also, the “% BWC at nadir (day)” value in data set [1] (melphalan IV 3.8 mg/kg/inj (total 15.2), days 16, 19, 22, 25, nadir day 17) was −1.2%; in data set [1] (melphalan IV 6.2 mg/kg/inj (total 24.8), days 16, 19, 22, 25, nadir day 32), −3.5%; in data set [1] (melphalan IV 10.0 mg/kg/inj (total 40.0), days 16, 19, 22, 25, nadir day 26), −12.2%; in data set [1] (melphalan IV 16.1 mg/kg/inj (total 32.2), days 16, 19, nadir day 26), −33.4%; in data set [2] (melphalan IV 3.8 mg/kg/inj (total 15.2), days 12, 15, 18, 21, nadir day 22) it was “+7.0%”; in data set [2] (melphalan IV 6.2 mg/kg/inj (total 24.8), days 12, 15, 18, 21, nadir day 24) it was −3.0%. Moreover, the “% BWC at nadir (day)” value is −14.6% in data set [2] (melphalan IV 10.0 mg/kg/inj (total 40.0), days 12, 15, 18, 21, nadir day 24) and −33.6% in data set [2] (melphalan IV 16.1 mg/kg/inj (total 48.3), treatments stopped on day 18, nadir day 22). Further, the “highest nontoxic dose (HNTD)” value in data set [1] (setting [7]) is on record as 10 mg/kg/inj. In addition, the “log10 cell kill gross” value was 0.8 in data set [2] (setting [8]), 3.5 in data set [2] (setting [9]) and 9.3 in data set [2] (setting [10]). The drug-related deaths in data set [2] (setting [11]) is recorded as 4/5. Also, the “body weight loss at nadir” value in data set [2] (melphalan alone 16.1 mg/kg/injection, nadir on day 22) was 33.6%. In data set [2] (setting [7]), this compound displayed an HNTD of 10 mg/kg/inj.

As to “hu38SB19: humanized version of anti-CD38 monoclonal antibody 38SB19; heavy chain CDRs SEQ ID NOS: 13, 81, 15, light chain CDRs SEQ ID NOS: 16, 17, 18”, the “cross-reactivity with murine CD38” value in data set [3] is “lack of cross-reactivity”. Moreover, the tolerability result in data set [1] (mouse, in vivo, 40 mg/kg) was “well tolerated”. In data set [1] (mouse, in vivo, iv, 40 mg/kg), the “% BWC at nadir (day)” value is listed as “+5.3%”, the Comments result was “not active; also recorded: HDT-inactive”, the Drug death is 0/5 and the “T-C in days (1000 mg)” value worked out at 5.2 days. The compound further yielded a log10 cell kill in data set [1] (mouse, in vivo, iv, 40 mg/kg) of 0.5. Also, in data set [2] (setting [12]), the “T-C in days (1000 mg)” value amounted to 1.1 days and the “log10 cell kill gross” value was 0.2. Besides, the Comments entry in data set [2] (hu38SB19 IV 40.0 mg/kg/inj (total 160.0), days 12, 15, 18, 21, 40 mg/kg) is “not active; also recorded: HDT-inactive”. In addition, in data set [2] (mouse, in vivo, 40 mg/kg), the tolerability result is listed as “well tolerated”. For the same compound, the “% BWC at nadir (day)” value in data set [2] (mouse, in vivo, iv, 40 mg/kg) was “+15.9%”.

Values taken from patent US9259406B2, “Antitumor combinations containing antibodies recognizing specifically CD38 and melphalan” (SANOFI, priority 2008, dated 2016).
